Laboratory results from paper PMC5392334, “Discovery and characterization of a novel irreversible EGFR mutants selective and potent kinase inhibitor CHMFL-EGFR-26 with a distinct binding mode” (Oncotarget, 2017).

Key:
BaF3-FL-EGFR-L858R-T790M = test: Anti-proliferation, BaF3 isogenic cell lines (CellTiter-Glo); assay type: cell-based; conditions: Mus musculus, 72 hours, triplet testing
[1] = quoted in discussion for comparison; species, route and reference not given; cited from earlier work
[2] = test system: EGFR Y1068 phosphorylation in BaF3-TEL-EGFR cells; test: EGFR Y1068 auto-phosphorylation in transformed BaF3 cells; conditions: Mus musculus, BaF3, 4 h, read-out: EC50, phosphorylation of EGFR Y1068
[3] = test system: BaF3-TEL-EGFR-T790M-C797S; test: Anti-proliferation, BaF3 isogenic cell lines (CellTiter-Glo); assay type: cell-based; conditions: Mus musculus, 72 hours, triplet testing
CHL = test: Anti-proliferation, normal cells (CellTiter-Glo); conditions: Cricetulus griseus, 72 h
Procedure: (§2) Cells were grown in 96-well culture plates (2500-3000/well). For adherent cell lines, compounds of various concentrations were added into the plates after cells were cultured for 12 hours. Cell proliferation was determined after treatment with compounds for 72 hours. Cell viability was measured using the CellTiter–Glo assay (Promega, USA) according to the manufacturer's instructions, and luminescence was measured in a multi-label reader (Envision, PerkinElmer, USA). Data were normalized to control groups (DMSO) and represented by the mean of three independent measurements with standard error <20%. GI50 values were calculated using Prism 5.0 (GraphPad Software, San Diego, CA).

[4] = test system: BaF3-FL-EGFR-del19-T790M-C797S; test: Anti-proliferation, BaF3 isogenic cell lines (CellTiter-Glo); assay type: cell-based; conditions: Mus musculus, 72 hours, triplet testing
CHO = test: Anti-proliferation, normal cells (CellTiter-Glo); conditions: Cricetulus griseus, 72 h
Procedure: as §2

BaF3-FL-EGFR-del19-T790M = test: Anti-proliferation, BaF3 isogenic cell lines (CellTiter-Glo); assay type: cell-based; conditions: Mus musculus, 72 hours, triplet testing
[5] = test system: BaF3-TEL-EGFR-L858R-C797S; test: as above; assay type: cell-based; conditions: Mus musculus, 72 hours, triplet testing
BaF3-FL-EGFR-del19 = test: as above; assay type: cell-based; conditions: Mus musculus, 72 hours, triplet testing
BaF3-INSR = test: Anti-proliferative effects, INSR transformed isogenic BaF3 cells; assay type: cell-based; conditions: Mus musculus, read-out: IC50 (anti-proliferative; GI50)
MNK2 kinase = conditions: cited from earlier work
BaF3-TEL-EGFR-L858R = test: Anti-proliferation, BaF3 isogenic cell lines (CellTiter-Glo); assay type: cell-based; conditions: Mus musculus, 72 hours, triplet testing
BaF3-TEL-EGFR-C797S = test: as above; assay type: cell-based; conditions: Mus musculus, 72 hours, triplet testing
BaF3-TEL-EGFR = test: as above; assay type: cell-based; conditions: Mus musculus, 72 hours, triplet testing
Parental BaF3 = test: as above; assay type: cell-based; conditions: Mus musculus; Parental BaF3; 72 hours; triplet testing
H1975 (EGFRL858R/T790M) = test: Anti-proliferation, NSCLC cell lines (CellTiter-Glo); assay type: cell-based, human; conditions: Homo sapiens, NCI-H1975; H1975 (EGFRL858R/T790M); 72 hours; triplet testing
Procedure: (§1) The human cancer cell lines H1975, HCC827, H2122, CHO, CHL and H1355 were purchased from the American Type Culture Collection (ATCC) (Manassas, VA, USA). PC9 cell line was purchased from the Sigma-Aldrich (St. Louis, MO, USA). A549, H3255 were purchased from Cobioer Biosciences CO., LTD (Nanjing, China). […] A549 and H1355 were cultured in F-12K Nutrient Mixture (kaighn's Modification) (Gibco, USA) with 10% FBS and supplemented with 2% L-glutamine and 1% pen/strep. H3255 was cultured in BEGM media (LONZA, USA) with 10% FBS and supplemented with 2% L-glutamine and 1% pen/strep.

[6] = test system: BaF3-FL-EGFR-L858R-T790M-C797S; test: Anti-proliferation, BaF3 isogenic cell lines (CellTiter-Glo); assay type: cell-based; conditions: Mus musculus, 72 hours, triplet testing
H1355(EGFR wt) = test: Anti-proliferation, NSCLC cell lines (CellTiter-Glo); assay type: cell-based; conditions: Homo sapiens, NCI-H1355, 72 hours, triplet testing
Procedure: as §1

H2122 (EGFR wt) = test: as above; assay type: cell-based; conditions: Homo sapiens, NCI-H2122, 72 hours, triplet testing
Procedure: as §1

PC-9 (EGFR del19) = test: as above; assay type: cell-based; conditions: Homo sapiens, 72 hours, triplet testing
Procedure: as §1

A549 (EGFR wt) = test: as above; assay type: cell-based; conditions: Homo sapiens, 72 hours, triplet testing
Procedure: as §1

H3255 (EGFRL858R) = test: as above; assay type: cell-based; conditions: Homo sapiens, NCI-H3255, 72 hours, triplet testing
Procedure: as §1

HCC827 (EGFR del19) = test: as above; assay type: cell-based; conditions: Homo sapiens, 72 hours, triplet testing
Procedure: as §1

H1703 (EGFR wt) = test: as above; assay type: cell-based; conditions: Homo sapiens, NCI-H1703, 72 hours, triplet testing
Procedure: as §1

BaF3-IGF1R = test: Anti-proliferative effects, IGF1R transformed isogenic BaF3 cells; assay type: cell-based; conditions: Mus musculus, read-out: IC50 (anti-proliferative; GI50)
BaF3-TEL-EGFR-T790M = test: Anti-proliferation, BaF3 isogenic cell lines (CellTiter-Glo); assay type: cell-based; conditions: Mus musculus, 72 hours, triplet testing

| Compound | GI50 (BaF3-FL-EGFR-L858R-T790M) [µM] | GI50 [3] [nM] | GI50 (CHL) [nM] | GI50 [4] [µM] | GI50 (CHO) [µM] | GI50 (BaF3-FL-EGFR-del19-T790M) [µM] | GI50 [5] [nM] | GI50 (BaF3-FL-EGFR-del19) [nM] | GI50 (BaF3-TEL-EGFR-L858R) [µM] | GI50 (BaF3-TEL-EGFR-C797S) [µM] | GI50 (BaF3-TEL-EGFR) [nM] | GI50 (Parental BaF3) [nM] | GI50 (H1975 (EGFRL858R/T790M)) [nM] | GI50 [6] [nM] | GI50 (H1355(EGFR wt)) [nM] | GI50 (H2122 (EGFR wt)) [nM] | GI50 (PC-9 (EGFR del19)) [nM] | GI50 (A549 (EGFR wt)) [µM] | GI50 (H3255 (EGFRL858R)) [nM] | GI50 (HCC827 (EGFR del19)) [nM] | further results |
| --- | --- | --- | --- | --- | --- | --- | --- | --- | --- | --- | --- | --- | --- | --- | --- | --- | --- | --- | --- | --- | --- |
| C=CC(=O)Nc1cc(Nc2nccc(-c3cn(C)c4ccccc34)n2)c(OC)cc1N(C)CCN(C)C [AZD9291, reference compound] | < 0.0003 | 550 | 2900 | 0.2 | 4.2 | < 0.0003 | 590 | 1 | < 0.0003 | 0.59 | 300 | 1500 | 52 | 310 | 3000 | 1200 | 2 | 3.5 | 33 | 1 | T1/2 [1]: 3.1 h; EC50 [2]: 63 nM; IC50 (BaF3-INSR): 500 nM; IC50 (MNK2 kinase): 95 nM; GI50 (H1703 (EGFR wt)): 3.5 µM; IC50 (BaF3-IGF1R): 560 nM; GI50 (BaF3-TEL-EGFR-T790M): 13 nM |
| CCC(=O)N1CCC[C@@H](n2nc(-c3ccc(OCc4cccc(C)n4)c(Cl)c3)c3c(N)ncnc32)C1 [CHMFL-EGFR-26R] | > 10 | > 10000 | > 10000 | 7.3 | > 10 | 7.1 | > 10000 | > 10000 | > 10 | 6.6 | > 10000 | > 10000 | > 10000 | > 10000 | > 10000 | > 10000 | > 10000 | > 10 | > 10000 | > 10000 | GI50 (H1703 (EGFR wt)): 9.4 µM; GI50 (BaF3-TEL-EGFR-T790M): > 10000 nM |
